Consider 4 compounds from patent US20060246131A1, “Use of metformin to counteract weight gain associated with psychotropic medications” (priority 2005, published 2006).

Data set [1] in a line: Case study: mood and behavior of a patient with Bipolar Affective Disorder NOS on aripiprazole. The format is in vivo, human. The settings on record: person, BPAD NOS; aripiprazole 5 mg once daily; 2 weeks later. The text has this: A person presented with behavioral problems.
The time of onset for childhood BPAD is frequently during the later years of the latency period, and typically includes rapid cycling, with disturbances in sleep, behavioral issues including aggression, grandiosity, and hyper-sexuality. At the time of evaluation, it was difficult to know if the patient also had co-occurring ADHD, combined subtype and Oppositional Defiant Disorder. Bipolar Affective Disorder, NOS appeared to be the more parsimonious diagnosis.
Additionally they were asked to keep a mood chart.

The conditions of data set [2]: metformin 500 mg twice daily together with aripiprazole, over a 3-month period.
The conditions of data set [3]: person treated with GEODON; cited from earlier work.
The conditions of data set [4]: cited from earlier work.

Structures are written as SMILES.

For `O=C1CCc2ccc(OCCCCN3CCN(c4cccc(Cl)c4Cl)CC3)cc2N1` [aripiprazole, 7-[4-[4-(2,3-dichlorophenyl)-1-piperazinyl]butoxy]-3,4-dihydrocarbostyril], the “behavioral outcome on return visit” value in data set [1] is “much more settled, with fewer outbursts, and no behavioral concerns”.
Regarding `CN(C)C(=N)N=C(N)N` [metformin, N,N-dimethylimidocarbonimidic diamide], the “Body Mass Index (BMI) after treatment” value in data set [2] (BMI from 24.9) is 22.6. For the same compound, the “decrease in body weight” value in data set [2] was “seven”.
With `O=C1Cc2cc(CCN3CCN(c4nsc5ccccc45)CC3)c(Cl)cc2N1` [GEODON], the weight gain entry in data set [3] is listed as “significant weight gain”.
Regarding `CN(C)C(=N)NC(=N)N.Cl` [Metformin hydrochloride, N,N-dimethylimidocarbonimidic diamide hydrochloride], the “pH of a 1% aqueous solution” value in data set [4] is 6.68.
